# How the values were obtained:
# [1] = tested on: Rhodococcus rhodochrous ATCC #53968; experiment: End of digestion: oil and aqueous volumes, acid number by alcoholic alkaline extraction and back titration; assay type: cell-based; settings: one ml of oil, alcoholic alkaline extraction, back titration; acrylic acid value per gram of oil emulsion
# Experimental: An oil degrading microorganism was used to evaluate the use of chemical inhibitors to slow the utilization of hydrocarbons in petroleum. In a non-limiting example, three different chemical compounds that have been reported to inhibit beta-oxidation were tested in oil and culture medium on a petroleum sample with a strain of Rhodococcus rhodochrous ATCC #53968 in m9 minimal medium. To test the ability of each chemical inhibitor to slow the consumption of fatty acids a culture of bacteria was grown on a crude oil sample for a period of three days with crude petroleum oil as the only carbon source. Four separate flasks were set up, each with an oil to aqueous media ratio of 1 to 5 (10 ml of crude oil to 50 ml of culture medium). Each of the three chemical inhibitors was added to a separate flask and a fourth flask was allowed to digest without the addition of a chemical inhibitor as a control. The flasks were shaken at a room temperature of about 25° C. under aerobic conditions. The progress of the microbial digestion was monitored by the optical density at 600 nm and by visual inspection of the brown oil color in the aqueous phase. Three days after the addition of inhibitors, or a total of six days of incubation with oil, a small sample of oil (0.31 g) was removed. A second sample of the same size was remover after another 6 days. The organic acids were extracted from each oil sample with 1% NaOH in 70% ethanol. […]
# At the end of the experiment the oil and water were separated and the volume determined. […] This would have under reported the amount of methyl esters determined by GC analysis. The amount of aqueous phase was determined to be 22.5 ml for the acrylic acid sample and 46 ml, 48 ml and 47.5 ml for the others. […] The calculated acid number for the uninhibited digestion was 5 mg of KOH per gram. The other two inhibited digestions were analyzed to be 4.5 mg for the 2-bromooctanoic acid and 6.5 for the 2-bromohexadecanoic acid inhibited digestion. The undigested oil was determined to have an acid number of 6.5 mg of KOH by analysis of a one gram sample and a 10 gram sample. […]
# [2] = tested on: Rhodococcus rhodochrous ATCC #53968; experiment: Growth of bacteria on crude oil with inhibitors, optical density at 600 nm; assay type: cell-based
# Experimental: An oil degrading microorganism was used to evaluate the use of chemical inhibitors to slow the utilization of hydrocarbons in petroleum. In a non-limiting example, three different chemical compounds that have been reported to inhibit beta-oxidation were tested in oil and culture medium on a petroleum sample with a strain of Rhodococcus rhodochrous ATCC #53968 in m9 minimal medium. To test the ability of each chemical inhibitor to slow the consumption of fatty acids a culture of bacteria was grown on a crude oil sample for a period of three days with crude petroleum oil as the only carbon source. Four separate flasks were set up, each with an oil to aqueous media ratio of 1 to 5 (10 ml of crude oil to 50 ml of culture medium). Each of the three chemical inhibitors was added to a separate flask and a fourth flask was allowed to digest without the addition of a chemical inhibitor as a control. The flasks were shaken at a room temperature of about 25° C. under aerobic conditions. The progress of the microbial digestion was monitored by the optical density at 600 nm and by visual inspection of the brown oil color in the aqueous phase. Three days after the addition of inhibitors, or a total of six days of incubation with oil, a small sample of oil (0.31 g) was removed. A second sample of the same size was remover after another 6 days. The organic acids were extracted from each oil sample with 1% NaOH in 70% ethanol. The samples were shaken vigorously for one minute. The aqueous extract material was then extracted with hexane to remove any trace of oil. The samples of extracted organic acids were then dried under vacuum and converted to methyl esters with BF3 in methanol.
# Digestion with the bacteria increases the total amount of carboxylic acids in all the samples. The digestions with the chemical beta-oxidation inhibitors produce about the same or a little more total methyl ester peaks than the bacterial digestion without an inhibitor. […] The later eluting peaks increase at a faster rate with the inhibitors than without. For example, the 12 day sample with no inhibitor increase from 5.9 to 45.9 area units for peaks up to 13 minutes. The sample with the acrylic acid inhibitor has an increase of from 5.9 to 43.7 area units, which is less than without inhibitor. The later eluting peaks increase from 3.6 to 14.3 without the inhibitor, but with acrylic acid the later peak areas increase to 22.5 area units. […] After 6 days of digestion the optical density had reached 2.23 for the uninhibited digestion as compared to 0.49 for the acrylic acid inhibited sample and 1.84 for the 2-bromooctanoic acid and 2.4 for the 2-bromohexadeconoic acid. After 12 days of digestion the uninhibited sample had reached 4.0 and the acrylic acid had increased to 1.7 and 2.2 and 2.4 for the other two inhibitors. Therefore, by this experimental analysis one can determine which inhibitors increase the carboxylic acid content or the acid number of the oil fastest with the least amount of oil consumption. The oil consumption can be determined by quantitation of remaining oil or by growth of bacteria were oil is the only carbon source. It appears that all the inhibitors helped reduce the utilization of fatty acids and the consumption of oil while producing an increase in acid number.
# [3] = after 6 days of digestion, crude oil only carbon source
smiles,measurement,setting,value
"C=CC(=O)O [AA, acrylic acid]",final analysis acid number,[1],10 mg KOH per gram
same,optical density,[2]; [3],0.49
same,optical density,[2]; after 12 days of digestion,1.7
"CCCCCCC(Br)C(=O)O (stereo not drawn) [Br C8, 2-bromooctanoic acid]",final analysis acid number,[1],4.5 mg KOH per gram
same,optical density,[2]; [3],1.84
same,optical density,[2]; after 12 days of digestion,2.2

# Source: patent US9290688B2, “Alkaline microbial enhanced oil recovery” (GEO FOSSIL FUELS, LLC, priority 2011, dated 2016)
